Reference: patent US9969724B2, “Factor IXa inhibitors” (Merck Sharp & Dohme Corp., priority 2014, dated 2018)

Molecular target: human factor IXa (Homo sapiens (Human), UniProt P00740)
Experiment: Determination of Inhibitory Activity Against Factor IXa
Type: biochemical
Conditions: Factor IXa enzyme assay human; read-out: FIXa IC50
Method: Inhibitory activity against factor IXa was tested using the substrate SPECTROFLUOR FIXa (american diagnostica inc.; 500 West Avenue, Stamford, Conn. 06902 USA; Pr. No. 299F) and human factor IXa (american diagnostica inc.; Pr. No. 449b). Test substances were dissolved in buffer A (50 mM α,α,α-tris(hydroxymethyl) methylamine (Tris), 100 mM NaCl, 5 mM CaCl2, 15% (v/v) ethylene glycol, pH 8.0) were mixed with factor IXa (0.1 μg/ml final concentration). The enzyme reaction was started by addition of SPECTROFLUOR FIXa (100 μM final concentration). After incubation for 60 minutes at room temperature, the reaction was stopped by the addition of 20% (v/v) acetic acid solution, and then the fluorescence value was measured (Excitation Wavelength: 355 nm, Emission Wavelength; 460 nm) in a microtiter plate reader (ARVO 1420 Multilabel Counter; PerkinElmer).
The IC50 was calculated from a dilution series of the test substance with the aid of the software, Symyx Assay Explorer (Symyx Technologies, Inc.).

human factor IXa, sequence (P00740 227-461): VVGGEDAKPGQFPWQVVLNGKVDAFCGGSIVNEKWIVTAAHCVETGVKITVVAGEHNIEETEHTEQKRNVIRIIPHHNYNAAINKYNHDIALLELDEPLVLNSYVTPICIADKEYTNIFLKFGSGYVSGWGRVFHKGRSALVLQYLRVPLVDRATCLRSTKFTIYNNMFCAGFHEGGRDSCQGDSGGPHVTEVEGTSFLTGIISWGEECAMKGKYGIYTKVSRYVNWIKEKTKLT
human factor IXa, sequence (P00740 47-191 partner): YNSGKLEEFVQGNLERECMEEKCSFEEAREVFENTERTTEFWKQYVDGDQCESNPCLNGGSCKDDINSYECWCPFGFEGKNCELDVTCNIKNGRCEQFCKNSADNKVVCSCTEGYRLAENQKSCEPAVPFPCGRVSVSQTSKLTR

SMILES | IC50 [nM]
C[C@H]1CN(c2cccc3c(N)noc23)C[C@]1(C)NC(=O)c1c(Cl)cc(-n2cnnc2)cc1Cl (relative stereo) [Example 7, N-((3R*,4S*)-1-(3-Aminobenzo[d]isoxazol-7-yl)-3,4-dimethylpyrrolidin-3-yl)-2,6-dichloro-4-(4H-1,2,4-triazol-4-yl)benzamide] | ≤ 100
Nc1noc2c(N3C[C@H](NC(=O)c4c(Cl)cc(-n5cnnc5)cc4Cl)[C@@H](O)C3)cccc12 (relative stereo) [Example 8, N-((3S*,4S*)-1-(3-Aminobenzo[d]isoxazol-7-yl)-4-hydroxypyrrolidin-3-yl)-2,6-dichloro-4-(4H-1,2,4-triazol-4-yl)benzamide] | ≤ 100
Nc1noc2c(N3CCC(NC(=O)c4ccc(-n5cnnc5)cc4Cl)C3)cccc12 (stereo not drawn) [Example 1, N-(1-(3-Aminobenzo[d]isoxazol-7-yl)pyrrolidin-3-yl)-2-chloro-4-(4H-1,2,4-triazol-4-yl)benzamide] | ≤ 100
CC1(NC(=O)c2c(Cl)cc(-n3cnnc3)cc2Cl)CCN(c2cccc3c(N)noc23)C1 (stereo not drawn) [Example 2, N-(1-(3-Aminobenzo[d]isoxazol-7-yl)-3-methylpyrrolidin-3-yl)-2,6-dichloro-4-(4H-1,2,4-triazol-4-yl)benzamide] | ≤ 100
Nc1nsc2c(N3CCC(NC(=O)c4c(Cl)cc(-n5cnnc5)cc4Cl)C3)cccc12 (stereo not drawn) [Example 4, N-(1-(3-Aminobenzo[d]isothiazol-7-yl)pyrrolidin-3-yl)-2,6-dichloro-4-(4H-1,2,4-triazol-4-yl)benzamide] | 100 to 1000
Nc1noc2c(N3CCC(NC(=O)c4ccc(-n5cnnc5)cc4Cl)C3)nccc12 (stereo not drawn) [Example 5, N-(1-(3-Aminoisoxazolo[5,4-c]pyridin-7-yl)pyrrolidin-3-yl)-2-chloro-4-(4H-1,2,4-triazol-4-yl)benzamide] | ≤ 100
Cc1cc(N2CCC(NC(=O)c3c(Cl)cc(-n4cnc(C)n4)cc3Cl)C2)c2onc(N)c2c1 (stereo not drawn) [Example 6, N-(1-(3-Amino-5-methylbenzo[d]isoxazol-7-yl)pyrrolidin-3-yl)-2,6-dichloro-4-(3-methyl-1H-1,2,4-triazol-1-yl)benzamide] | ≤ 100
Nc1noc2c(N3CC[C@@H](NC(=O)c4ccc(-n5cnnc5)cc4Cl)C3)ccc(Cl)c12 [Example 9, (R)—N-(1-(3-Amino-4-chlorobenzo[d]isoxazol-7-yl)pyrrolidin-3-yl)-2-chloro-4-(4H-1,2,4-triazol-4-yl)benzamide] | ≤ 100
Nc1noc2c(N3CC[C@@H](NC(=O)c4ccc(-n5cnnc5)cc4Cl)C3)cc(Cl)cc12 [Example 10, (R)—N-(1-(3-Amino-5-chlorobenzo[d]isoxazol-7-yl)pyrrolidin-3-yl)-2-chloro-4-(4H-1,2,4-triazol-4-yl)benzamide] | ≤ 100
Cc1ncn(-c2ccc(C(=O)N[C@@H]3CCN(c4ncc(Cl)c5c(N)noc45)C3)c(Cl)c2)n1 [Example 11, (R)—N-(1-(3-Amino-4-chloroisoxazolo[5,4-c]pyridin-7-yl)pyrrolidin-3-yl)-2-chloro-4-(3-methyl-1H-1,2,4-triazol-1-yl)benzamide] | ≤ 100
Cc1cc(N2CC[C@@H](NC(=O)c3ccc(-n4cnnc4)cc3Cl)C2)c2onc(N)c2c1Cl [Example 12, (R)—N-(1-(3-Amino-4-chloro-5-methylbenzo[d]isoxazol-7-yl)pyrrolidin-3-yl)-2-chloro-4-(4H-1,2,4-triazol-4-yl)benzamide] | ≤ 100
Nc1noc2c(N3CC[C@@H](NC(=O)c4ccc(-n5cnnc5)cc4Cl)C3)ccc(F)c12 [Example 13, (R)—N-(1-(3-Amino-4-fluorobenzo[d]isoxazol-7-yl)pyrrolidin-3-yl)-2-chloro-4-(4H-1,2,4-triazol-4-yl)benzamide] | 100 to 1000
Nc1noc2c(N3CC[C@@H](NC(=O)c4ccc(-n5cnnc5)cc4Cl)C3)cc(Cl)c(Cl)c12 [Example 14, (R)—N-(1-(3-Amino-4,5-dichlorobenzo[d]isoxazol-7-yl)pyrrolidin-3-yl)-2-chloro-4-(4H-1,2,4-triazol-4-yl)benzamide] | ≤ 100
Cc1ncn(-c2ccc(C(=O)NC3(C)CCN(c4cc(Cl)cc5c(N)noc45)C3)c(Cl)c2)n1 (stereo not drawn) [Example 15, N-(1-(3-Amino-5-chlorobenzo[d]isoxazol-7-yl)-3-methylpyrrolidin-3-yl)-2-chloro-4-(3-methyl-1H-1,2,4-triazol-1-yl)benzamide] | ≤ 100
Nc1noc2c(N3CC[C@@H](NC(=O)c4ccc(-n5cnc(CO)n5)cc4Cl)C3)cc(Cl)cc12 [Example 16, (R)—N-(1-(3-Amino-5-chlorobenzo[d]isoxazol-7-yl)pyrrolidin-3-yl)-2-chloro-4-(3-(hydroxymethyl)-1H-1,2,4-triazol-1-yl)benzamide] | ≤ 100
Nc1noc2c(N3CC[C@@H](NC(=O)c4ccc(-n5cnc(C6CC6)n5)cc4Cl)C3)cc(Cl)cc12 [Example 17, (R)—N-(1-(3-Amino-5-chlorobenzo[d]isoxazol-7-yl)pyrrolidin-3-yl)-2-chloro-4-(3-cyclopropyl-1H-1,2,4-triazol-1-yl)benzamide] | ≤ 100
Nc1noc2c(N3CC[C@@H](NC(=O)c4ccc(-n5cncn5)cc4F)C3)ccc(Cl)c12 [Example 18, (R)—N-(1-(3-Amino-4-chlorobenzo[d]isoxazol-7-yl)pyrrolidin-3-yl)-2-fluoro-4-(1H-1,2,4-triazol-1-yl)benzamide] | 100 to 1000
Cc1cc(-n2cncn2)ccc1C(=O)N[C@@H]1CCN(c2ccc(Cl)c3c(N)noc23)C1 [Example 19, (R)—N-(1-(3-Amino-4-chlorobenzo[d]isoxazol-7-yl)pyrrolidin-3-yl)-2-methyl-4-(1H-1,2,4-triazol-1-yl)benzamide] | 100 to 1000
Nc1noc2c(N3CC[C@@H](NC(=O)c4ccc(-c5cncnc5)cc4Cl)C3)ncc(Cl)c12 [Example 20, (R)—N-(1-(3-Amino-4-chloroisoxazolo[5,4-c]pyridin-7-yl)pyrrolidin-3-yl)-2-chloro-4-(pyrimidin-5-yl)benzamide] | ≤ 100
COc1ncc(-c2ccc(C(=O)N[C@@H]3CCN(c4ncc(Cl)c5c(N)noc45)C3)c(Cl)c2)cn1 [Example 21, (R)—N-(1-(3-Amino-4-chloroisoxazolo[5,4-c]pyridin-7-yl)pyrrolidin-3-yl)-2-chloro-4-(2-methoxypyrimidin-5-yl)benzamide] | ≤ 100
N#Cc1ncc(-c2ccc(C(=O)N[C@@H]3CCN(c4ncc(Cl)c5c(N)noc45)C3)c(Cl)c2)cn1 [Example 22, (R)—N-(1-(3-Amino-4-chloroisoxazolo[5,4-c]pyridin-7-yl)pyrrolidin-3-yl)-2-chloro-4-(2-cyanopyrimidin-5-yl)benzamide] | ≤ 100
Nc1noc2c(N3CC[C@@H](NC(=O)c4ccc(-n5cnc(CCO)n5)cc4Cl)C3)ccc(Cl)c12 [Example 23, (R)—N-(1-(3-Amino-4-chlorobenzo[d]isoxazol-7-yl)pyrrolidin-3-yl)-2-chloro-4-(3-(2-hydroxyethyl)-1H-1,2,4-triazol-1-yl)benzamide] | ≤ 100
Nc1noc2c(N3CC[C@@H](NC(=O)c4ccc(-n5cncn5)cc4Cl)C3)ncc(Cl)c12 [Example 24, (R)—N-(1-(3-Amino-4-chloroisoxazolo[5,4-c]pyridin-7-yl)pyrrolidin-3-yl)-2-chloro-4-(1H-1,2,4-triazol-1-yl)benzamide] | ≤ 100
Nc1noc2c(N3CC[C@@H](NC(=O)c4ccc(-c5cncc(CO)c5)cc4Cl)C3)ccc(Cl)c12 [Example 25, (R)—N-(1-(3-Amino-4-chlorobenzo[d]isoxazol-7-yl)pyrrolidin-3-yl)-2-chloro-4-(5-(hydroxymethyl)pyridin-3-yl)benzamide] | ≤ 100
Nc1noc2c(N3CC[C@@H](NC(=O)c4ccc(-n5cc(CCO)cn5)cc4Cl)C3)ccc(Cl)c12 [Example 26, (R)—N-(1-(3-Amino-4-chlorobenzo[d]isoxazol-7-yl)pyrrolidin-3-yl)-2-chloro-4-(4-(2-hydroxyethyl)-1H-pyrazol-1-yl)benzamide] | ≤ 100
Nc1noc2c(N3CC[C@@H](NC(=O)c4ccc(-n5cnc(CCO)c5)cc4Cl)C3)ncc(Cl)c12 [Example 27, (R)—N-(1-(3-Amino-4-chloroisoxazolo[5,4-c]pyridin-7-yl)pyrrolidin-3-yl)-2-chloro-4-(4-(2-hydroxyethyl)-1H-imidazol-1-yl)benzamide] | ≤ 100
Nc1noc2c(N3CC[C@@H](NC(=O)c4ccc(-n5cnnc5C(F)F)cc4Cl)C3)ncc(Cl)c12 [Example 28, (R)—N-(1-(3-Amino-4-chloroisoxazolo[5,4-c]pyridin-7-yl)pyrrolidin-3-yl)-2-chloro-4-(3-(difluoromethyl)-4H-1,2,4-triazol-4-yl)benzamide] | ≤ 100
Nc1noc2c(N3CC[C@@H](NC(=O)c4ccc(-n5cnc6ccccc65)cc4Cl)C3)ncc(Cl)c12 [Example 29, (R)—N-(1-(3-Amino-4-chloroisoxazolo[5,4-c]pyridin-7-yl)pyrrolidin-3-yl)-4-(1H-benzo[d]imidazol-1-yl)-2-chlorobenzamide] | ≤ 100
Nc1noc2c(N3CC[C@@H](NC(=O)c4ccc(-c5ccnnc5)cc4Cl)C3)ncc(Cl)c12 [Example 30, (R)—N-(1-(3-Amino-4-chloroisoxazolo[5,4-c]pyridin-7-yl)pyrrolidin-3-yl)-2-chloro-4-(pyridazin-4-yl)benzamide] | ≤ 100
Nc1noc2c(N3CC[C@@H](NC(=O)c4ccc(-c5cncc(CCO)c5)cc4Cl)C3)ncc(Cl)c12 [Example 31, (R)—N-(1-(3-Amino-4-chloroisoxazolo[5,4-c]pyridin-7-yl)pyrrolidin-3-yl)-2-chloro-4-(5-(2-hydroxyethyl)pyridin-3-yl)benzamide] | ≤ 100
